Results from patent publication US4599352A, “Antineoplastic platinum (IV) complexes and compositions” (priority 1984, dated 1986).

Columns and labels:
[1] = tested on: IP-Implanted L1210 Leukemia; experiment: Dose-response against IP-implanted L1210 leukemia, IP treatment Days 1, 5 and 9, 30-day test (Table 2); format: in vivo, CD2Fl male mice
Procedure: (§1) Biological properties of the compounds of the present invention were determined following the protocol described in Cancer Chemotherapy Reports, Vol. 3, No. 3, 1972 which report is incorporated herein by reference.
(§2) This experiment (A8-00005 3LE31) was conducted at the Southern Research Institute, Birmingham, Ala. under the supervision of Dr. Daniel Griswold. The protocols were the same as those published previously (Geran et al., Cancer Chemotherapy Reports 3: No. 2, 1972 [Attachment 11]). 10^5 cells were implanted intraperitoneally in CD2Fl male mice on Day 0. Drug treatments were given intraperitoneally as single injections at the doses indicated on Days 1, 5 and 9 after tumor implantation. The diluent was saline except for NSC-271674 where 5% sodium bicarbonate was used. All drugs were prepared fresh on the day of injection, and all were administered in solution. Median survival times for both control and drug-treated mice were determined and expressed as a percentage (% T/C). Body weights were determined on Day 5 and expressed as a weight difference (body weight of the drug-treated animals minus that of the control animals in grams) (T-C). The diluent control animals lived a median of 8.4 days and gained 1.9 grams by Day 5 in this experiment. All animals, including Day 30 survivors, were used in the calculation of median survival times. The log10 change in tumor burden refers to the net log change in viable tumor cell population at the end of therapy (Rx) as compared to the start of therapy; e.g., a […] means that there was a […] and a 3 log change means there was a 1000-fold increase in tumor burden at the end of therapy. The tumor burden at the start of therapy was about 6.1×10^5 cells in this experiment.

[2] = tested on: IP L1210; experiment: Activity against IP-implanted L1210 leukemia sensitive to cisplatin, 30 day test (Table 3); format: in vivo, Female CD2Fl mice
Procedure: as §1
(§3) Other known mechanisms of resistance for other classes of agents, such as gene amplification or target enzyme change or amplication, also need to be explored. The experiments summarized in Table 3 were conducted at the same time against both sublines using the same drug preparations. […] These experiments were repeated in a second laboratory as documented in Table 4. However, in these experiments the animals were held for 60 rather than 30 days to evaluate whether or not long-term survivors are produced after drug treatment in a more challenging setting.
as §2
These experiments (A8-00008 3LE31 and A8-00001 3DP31) were conducted concurrently at the Southern Research Institute, Birmingham, Ala. under the supervision of Dr. Daniel Griswold. See Table 4 for experimental details. The diluent control animals bearing L1210 leukemia lived a median of 8.6 days and gained 1.3 grams by Day 5. […] Female CD2Fl mice were used for these experiments.

[3] = tested on: IP L1210/Cisplatin; experiment: Activity against IP-implanted L1210/Cisplatin leukemia resistant to cisplatin, 30 day test (Table 3); format: in vivo, Female CD2Fl mice
Procedure: as §1, §3
This experiment (A8-00005 3LE31) was conducted at the Southern Research Institute, Birmingham, Ala. under the supervision of Dr. Daniel Griswold. The protocols were the same as those published previously (Geran et al., Cancer Chemotherapy Reports 3: No. 2, 1972 [Attachment 11]). 10^5 cells were implanted intraperitoneally in CD2Fl male mice on Day 0. Drug treatments were given intraperitoneally as single injections at the doses indicated on Days 1, 5 and 9 after tumor implantation. The diluent was saline except for NSC-271674 where 5% sodium bicarbonate was used. All drugs were prepared fresh on the day of injection, and all were administered in solution. Median survival times for both control and drug-treated mice were determined and expressed as a percentage (% T/C). Body weights were determined on Day 5 and expressed as a weight difference (body weight of the drug-treated animals minus that of the control animals in grams) (T-C). The diluent control animals lived a median of 8.4 days and gained 1.9 grams by Day 5 in this experiment. All animals, including Day 30 survivors, were used in the calculation of median survival times. The log10 change in tumor burden refers to the net log change in viable tumor cell population at the end of therapy (Rx) as compared to the start of therapy; e.g., a […] means that there was a […] and a 3 log change means there was a 1000-fold increase in tumor burden at the end of therapy. The tumor burden at the start of therapy was about 6.1×10^5 cells in this experiment. […]

[4] = tested on: IP L1210 leukemia; experiment: Mouse optimal (highest tolerated) dose, IP L1210 leukemia, Days 1, 5 and 9 schedule (Table 7); format: in vivo
Excerpt: *IP L1210 leukemia, Days 1, 5 and 9 schedule. Highest tolerated dose in a
least 2 of 3 experiments (i.e,. animal weight difference (testcontrol)

[Cl][Pt-2]1([Cl])([Cl])([Cl])[NH2+][C@H]2CCCC[C@@H]2[NH2+]1 [trans (d), (1S, 2S)-Tetrachloro-trans-1,2-cyclohexanediamine platinum (IV)]
30-Day Survivors/Total ([1]; 1 mg/kg/dose IP): 0/6
Body Weight Difference ([1]; 1 mg/kg/dose IP): -0.3 Grams
Median % T/C ([1]; 1 mg/kg/dose IP): 119%
30-Day Survivors/Total ([1]; 2 mg/kg/dose IP): 0/6
Approx. Log10 Change in Tumor Burden at End of Rx ([1]; 2 mg/kg/dose IP): ~2.7 log10
Body Weight Difference ([1]; 2 mg/kg/dose IP): -0.6 Grams
Median % T/C ([1]; 2 mg/kg/dose IP): 134%
30-Day Survivors/Total ([1]; 4 mg/kg/dose IP): 1/6
Approx. Log10 Change in Tumor Burden at End of Rx ([1]; 4 mg/kg/dose IP): ~-1.1 log10
Body Weight Difference ([1]; 4 mg/kg/dose IP): -0.9 Grams
Median % T/C ([1]; 4 mg/kg/dose IP): 211%
30-Day Survivors/Total ([1]; 8 mg/kg/dose IP): 3/6
Approx. Log10 Change in Tumor Burden at End of Rx ([1]; 8 mg/kg/dose IP): ~-5.7 log10
Body Weight Difference ([1]; 8 mg/kg/dose IP): -1.7 Grams
Median % T/C ([1]; 8 mg/kg/dose IP): 357%
Body Weight Difference ([1]; 8 mg/kg/dose IP, listed as trans d): less than -4 Grams
30-Day Survivors/Total ([1]; 16 mg/kg/dose IP): 1/6
Approx. Log10 Change in Tumor Burden at End of Rx ([1]; 16 mg/kg/dose IP): ~-2.0 log10
Body Weight Difference ([1]; 16 mg/kg/dose IP): -4.9 Grams
Median % T/C ([1]; 16 mg/kg/dose IP): 226%
Optimal dose (dose producing best therapeutic response) ([1]; day 1, 5 and 9 schedule): 8 mg/kg/injection
30 Day Survivors/Total ([2]; 1 mg/kg/dose): 0/6
Approx. Log10 Change in Tumor Burden at End of RX ([2]; 1 mg/kg/dose): ~3.0 log10
Median % T/C ([2]; 1 mg/kg/dose): 113%
30 Day Survivors/Total ([2]; 2 mg/kg/dose): 0/6
Approx. Log10 Change in Tumor Burden at End of RX ([2]; 2 mg/kg/dose): ~2.5 log10
Median % T/C ([2]; 2 mg/kg/dose): 144%
30 Day Survivors/Total ([2]; 4 mg/kg/dose): 2/6
Approx. Log10 Change in Tumor Burden at End of RX ([2]; 4 mg/kg/dose): ~-1.2 log10
Median % T/C ([2]; 4 mg/kg/dose): 209%
30 Day Survivors/Total ([2]; 8 mg/kg/dose): 3/6
Approx. Log10 Change in Tumor Burden at End of RX ([2]; 8 mg/kg/dose): ~-5.9 log10
Median % T/C ([2]; 8 mg/kg/dose): 348%
30 Day Survivors/Total ([2]; 16 mg/kg/dose): 0/6
Median % T/C ([2]; 16 mg/kg/dose): 96%
30 Day Survivors/Total ([3]; 1 mg/kg/dose): 0/6
Approx. Log10 Change in Tumor Burden at End of RX ([3]; 1 mg/kg/dose): ~3.1 log10
Median % T/C ([3]; 1 mg/kg/dose): 101%
30 Day Survivors/Total ([3]; 2 mg/kg/dose): 0/6
Approx. Log10 Change in Tumor Burden at End of RX ([3]; 2 mg/kg/dose): ~2.8 log10
Median % T/C ([3]; 2 mg/kg/dose): 116%
30 Day Survivors/Total ([3]; 4 mg/kg/dose): 0/6
Approx. Log10 Change in Tumor Burden at End of RX ([3]; 4 mg/kg/dose): ~2.4 log10
Median % T/C ([3]; 4 mg/kg/dose): 139%
30 Day Survivors/Total ([3]; 8 mg/kg/dose): 3/6
Approx. Log10 Change in Tumor Burden at End of RX ([3]; 8 mg/kg/dose): ~-5.9 log10
Median % T/C ([3]; 8 mg/kg/dose): 322%
30 Day Survivors/Total ([3]; 16 mg/kg/dose): 1/6
Median % T/C ([3]; 16 mg/kg/dose): 143%
Mouse Optimal Dose (highest tolerated dose in at least 2 of 3 experiments) [4]: 8 mg/kg
